This experiment has as its system 3T3. As to the kind of experiment: Toxicity of NAC-MTN vs CD-MTN and MTN, MTT (Example 9, EX042105). In kind it is cell-based, mouse. As for the experimental part:
FIG. 4. […] The relative toxicity of NAC-MTN was compared with MTN and CD-MTN in four cell lines, MCF7(breast cancer), COS7green monkey kidney (SV40 transformed), 3T3 (mouse fibroblast), and BHK21(hamster kidney). Cells were treated with identical amounts of MTN formulated as either NAC-MTN, MTN only, or poly-beta-cyclodextrin-sulfylbutylether(CD-MTN). After an incubation period, cell viability was assayed with MTT assay. The differences in toxicity between NAC-MTN and MTN or NAC-MTN and CD-MTN are shown as % difference. Greater percentage difference correlates to more reduction in relative NAC-MTN toxicity.
MCF7, COS7, 3T3, and BHK21 cells were plated out in duplicate rows of equivalent cell density in 100ul final volume. Initial cell densities were 2000 cells/well.
Preparing NAC-MTN, CD-MTN, and MTN only. Combined 180 ul of 0.05 mg/ml MTN with […] 0.1 mg/ml herring sperm genomic DNA (HSGDNA, Promega), 1500 ul of 2× DMEM media containing 20% FBS to give 3.0 ml final volume and 12% final drug loading in the dsDNA. For MTN only, 180 ul of MTN was combined with 1320 ul H2O and 1500 ul 2× DMEM. […]
Aspirated media in plate and replaced with 50 ul of 0.5 mg/ml MTT in 1× media, incubated 3 hours, aspirated, air dried 5 min and dissolved in 100 ul of isopropyl, read OD at A570. […]

As to `O=C1c2c(O)ccc(O)c2C(=O)c2c(NCCNCCO)ccc(NCCNCCO)c21` [MTN, mitoxantrone], the “% tox. relative to media only” value (2 uM final MTN, MTT 48 hours after adding samples) came to 37.57%. For the same compound, the toxic effect result (after 24 hours, 2 uM MTN) is on record as “no toxic effect”.

For the origin of these results see patent US20070225213A1, “Nucleic acid carriers for delivery of therapeutic agents” (priority 2006, published 2007).
